Data set [1] has as its system DRGs, motor neurons, and Schwann cells. The settings on record: 72 h; for Measures in vitro tolerated concentrations on PN cells: rat. The method, then: It is contemplated that delivery of immunosuppressive agents function within a favorable therapeutic window. PNs are comprised of three major nervous system cell types, motor neurons, sensory neurons, and Schwann cells. […] FIG. 1B illustrates data regarding the toxicity of tacrolimus to DRGs, motor neurons, and Schwann cells. FIG. 1C illustrates data regarding the toxicity of prednisolone to DRGs, motor neurons, and Schwann cells.
Cells (DRGs, motor neurons, and Schwann cells) were cultured for 72 hours in various concentration of the immunosuppressive drugs and viability was evaluated using the Alamar blue viability assay. ISV's were diluted into media using a maximum of 1% dimethylsulfoxide (DMSO).
FIG. 2B illustrates data regarding the viability of DRGs, motor neurons, and Schwann cells cultured in about 10 μM tracrolimus with differing concentrations of prednisolone.

In another data set the test system is immune cells. The settings on record: cited from earlier work; for in vitro effective concentration on immune cells: Table 1.
The conditions of data set [2]: Table 1; cited from earlier work.

As to `C[C@]12C=CC(=O)C=C1CC[C@@H]1[C@@H]2[C@@H](O)C[C@@]2(C)[C@H]1CC[C@]2(O)C(=O)CO` [Prednisolone, prednisolone], in data set [1], the “tolerated by the cells at doses up to” value is given as “up to 200 μM” and the “Measures in vitro tolerated concentrations on PN cells” value is 200 µM. Also, in the data set with immune cells, the “in vitro effective concentration on immune cells” value is 240 nM; the “effective dose for inhibiting activation and proliferation of immune cells” value is recorded as “greater than 240 μM”. Moreover, in data set [2], the “Effective clinical plasma concentration” value is 277 nM.

As for `C=CC[C@@H]1/C=C(\C)C[C@H](C)C[C@H](OC)[C@H]2O[C@@](O)(C(=O)C(=O)N3CCCC[C@H]3C(=O)O[C@H](/C(C)=C/[C@@H]3CC[C@@H](O)[C@H](OC)C3)[C@H](C)[C@@H](O)CC1=O)[C@H](C)C[C@@H]2OC` [Tacrolimus, tacrolimus], in data set [1], the “tolerated by the cells at doses up to” value was 10 to 25 µM and the “Measures in vitro tolerated concentrations on PN cells” value was in the range of 10 to 25 µM. In the data set with immune cells, the “in vitro effective concentration on immune cells” value is 0.5 to 1.0 nM; the “effective dose for inhibiting activation and proliferation of immune cells” value is 50 to 100 µM. For the same compound, the “Effective clinical plasma concentration” value in data set [2] is 21 nM.

The values are drawn from patent publication US20200139012A1, “METHODS AND MATERIALS FOR IMMUNOMODULATION OF TISSUE GRAFTS” (UNIVERSITY OF WYOMING, priority 2018, published 2020).
